Results on two compounds are retold here after patent publication US20120045433A1, “COMBINATION THERAPY” (priority 2010, published 2012).

Counter-ions that a name gives are not always drawn.

Assay [1] deals with human HT-29 cell xenografts. Put plainly: Antitumor activity (tumor growth inhibition, regression) in mice with human HT-29 colorectal cancer xenografts. The conditions noted are these: for % Tumor Growth Inhibition: Compound I 25 mg/kg bid, cetuximab 40 mg/kg 2x/wk, irinotecan HCl 40 mg/kg q4d x5, alone or combined. Type of assay: in vivo. The text has this: (§1) Mice were implanted with human HT-29 cell xenografts. The mice, cell line used, and implantation are described below.
Tumor measurements were taken once or twice per week. All animals were individually followed throughout the experiment.
For orientation: Xenograft models place foreign cells or tissue in a host animal.

The test system of assay [2] is human HT-29 cell xenografts. Put plainly: Assessment of survival (increased life span) in mice with human HT-29 xenografts. The class given is in vivo. The conditions noted are these: for 50% Treatment Days: median survival, Kaplan Meier, vehicle 30 days, same doses. The procedure:
as §1
For survival assessment, the percent of increased life space (ILS) was calculated as: 100×[(median survival day of treated group−median survival day of control group)/median survival day of control group]. Median survival was determined utilizing Kaplan Meier survival analysis. […] Differences between groups were considered significant when the probability value (p) was ≦0.05.

[3] abbreviates: number of mice out of 10 per group, same doses.

For the compound `CCc1c2c(nc3ccc(OC(=O)N4CCC(N5CCCCC5)CC4)cc13)-c1cc3c(c(=O)n1C2)COC(=O)[C@]3(O)CC` [Irinotecan HCl, irinotecan hydrochloride, reference compound], the “% Tumor Growth Inhibition” value in assay [1] is listed as 59%. For the same compound, in assay [1] (setting [3]), the “Complete Regression” value is 0 and the “Partial Regression” value was determined as 0. In addition, in assay [1] (same doses), the “% Inhibition end of study Day: 32” value is recorded as 59% and the “% T/C end of study Day: 32” value amounted to 41%. Also, the “50% Treatment Days” value in assay [2] came to 35 days.

For the compound `CCCS(=O)(=O)Nc1ccc(F)c(C(=O)c2c[nH]c3ncc(-c4ccc(Cl)cc4)cc23)c1F` [Compound I, propane-1-sulfonic acid {3-[5-(4-chlorophenyl)-1H-pyrrolo[2,3-b]pyridine-3-carbonyl]-2,4-difluoro-phenyl}-amide], the “Mean Tumor Volume (mm^3) End Study” value in assay [1] (Compound I 25 mg/kg bid po, cetuximab 40 mg/kg 2x/wk ip, irinotecan HCl 40 mg/kg q4d x5 ip, alone or combined, end of study day 32) is reported as 563.72 mm^3. Moreover, the “% Tumor Growth Inhibition” value in assay [1] stood at 76%. The “Mean Tumor Volume (mm^3) Start Study” value in assay [1] (baseline at start of treatment (day 11 post implant)) turned out to be 136.24 mm^3. Also, in assay [1] (same doses), the “% Inhibition end of study Day: 32” value was found to be 76% and the “% T/C end of study Day: 32” value was determined as 24%. In addition, in assay [2] (increased life span versus vehicle, Compound I 25 mg/kg bid, cetuximab 40 mg/kg 2x/wk, irinotecan HCl 40 mg/kg q4d x5, alone or combined), the “% ILS” value is 80%. For the same compound, the “50% Treatment Days” value in assay [2] was 54 days.
